Reference: ChEMBL document CHEMBL4052645, “Discovery of potent and efficacious pyrrolopyridazines as dual JAK1/3 inhibitors” (Bioorg Med Chem Lett, 2017)
The source made the active and inactive calls. The calls are words filed in the database; no cut-off is given here.

Assays:
[1] = Protein binding in mouse plasma at 10 mg/kg, po; format: ADME, organism-based; conditions: read-out: PPB (converted)
[2] = Cmax in mouse at 10 mg/kg, po; format: ADME, organism-based; set-up: dose 10 mg/kg, route oral; conditions: in vivo
[3] = biological target: Tyrosine-protein kinase JAK1 (Homo sapiens, UniProt P23458); experiment: Inhibition of GST-tagged JAK1 (unknown origin) after 3 hrs by Caliper assay
Chain of Tyrosine-protein kinase JAK1 (P23458 whole entry): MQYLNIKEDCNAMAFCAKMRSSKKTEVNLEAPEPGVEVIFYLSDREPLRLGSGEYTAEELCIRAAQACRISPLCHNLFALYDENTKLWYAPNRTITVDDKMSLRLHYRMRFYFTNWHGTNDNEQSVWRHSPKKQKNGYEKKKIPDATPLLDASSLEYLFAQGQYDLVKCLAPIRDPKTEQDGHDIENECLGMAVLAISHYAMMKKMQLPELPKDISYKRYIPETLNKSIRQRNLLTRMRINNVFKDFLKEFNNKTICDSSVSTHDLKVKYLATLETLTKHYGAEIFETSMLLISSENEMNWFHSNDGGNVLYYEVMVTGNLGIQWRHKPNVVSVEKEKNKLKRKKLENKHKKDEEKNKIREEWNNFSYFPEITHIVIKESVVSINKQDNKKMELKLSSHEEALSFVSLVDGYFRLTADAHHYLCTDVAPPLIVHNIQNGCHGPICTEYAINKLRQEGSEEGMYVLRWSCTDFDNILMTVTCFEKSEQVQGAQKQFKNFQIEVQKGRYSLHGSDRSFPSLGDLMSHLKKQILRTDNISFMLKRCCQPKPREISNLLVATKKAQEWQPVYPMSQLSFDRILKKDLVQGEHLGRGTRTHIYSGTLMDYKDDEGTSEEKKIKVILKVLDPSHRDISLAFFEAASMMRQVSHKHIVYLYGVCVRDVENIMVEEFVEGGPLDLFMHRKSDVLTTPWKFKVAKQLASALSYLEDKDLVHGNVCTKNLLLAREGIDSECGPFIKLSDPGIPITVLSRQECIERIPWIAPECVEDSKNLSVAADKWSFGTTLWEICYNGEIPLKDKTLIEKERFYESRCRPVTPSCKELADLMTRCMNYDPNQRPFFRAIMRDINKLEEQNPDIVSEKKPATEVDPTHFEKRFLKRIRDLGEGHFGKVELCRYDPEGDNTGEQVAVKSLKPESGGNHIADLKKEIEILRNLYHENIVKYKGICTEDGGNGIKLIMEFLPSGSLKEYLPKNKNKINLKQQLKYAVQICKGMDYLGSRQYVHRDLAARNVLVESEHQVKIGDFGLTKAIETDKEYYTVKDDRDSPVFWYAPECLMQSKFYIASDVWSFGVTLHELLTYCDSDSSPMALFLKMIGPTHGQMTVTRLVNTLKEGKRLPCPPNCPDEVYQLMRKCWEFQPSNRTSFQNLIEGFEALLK

[4] = biological target: Voltage-gated inwardly rectifying potassium channel KCNH2 (Homo sapiens, UniProt Q12809); experiment: Inhibition of human ERG by flux-based assay
Chain of Voltage-gated inwardly rectifying potassium channel KCNH2 (Q12809 whole entry): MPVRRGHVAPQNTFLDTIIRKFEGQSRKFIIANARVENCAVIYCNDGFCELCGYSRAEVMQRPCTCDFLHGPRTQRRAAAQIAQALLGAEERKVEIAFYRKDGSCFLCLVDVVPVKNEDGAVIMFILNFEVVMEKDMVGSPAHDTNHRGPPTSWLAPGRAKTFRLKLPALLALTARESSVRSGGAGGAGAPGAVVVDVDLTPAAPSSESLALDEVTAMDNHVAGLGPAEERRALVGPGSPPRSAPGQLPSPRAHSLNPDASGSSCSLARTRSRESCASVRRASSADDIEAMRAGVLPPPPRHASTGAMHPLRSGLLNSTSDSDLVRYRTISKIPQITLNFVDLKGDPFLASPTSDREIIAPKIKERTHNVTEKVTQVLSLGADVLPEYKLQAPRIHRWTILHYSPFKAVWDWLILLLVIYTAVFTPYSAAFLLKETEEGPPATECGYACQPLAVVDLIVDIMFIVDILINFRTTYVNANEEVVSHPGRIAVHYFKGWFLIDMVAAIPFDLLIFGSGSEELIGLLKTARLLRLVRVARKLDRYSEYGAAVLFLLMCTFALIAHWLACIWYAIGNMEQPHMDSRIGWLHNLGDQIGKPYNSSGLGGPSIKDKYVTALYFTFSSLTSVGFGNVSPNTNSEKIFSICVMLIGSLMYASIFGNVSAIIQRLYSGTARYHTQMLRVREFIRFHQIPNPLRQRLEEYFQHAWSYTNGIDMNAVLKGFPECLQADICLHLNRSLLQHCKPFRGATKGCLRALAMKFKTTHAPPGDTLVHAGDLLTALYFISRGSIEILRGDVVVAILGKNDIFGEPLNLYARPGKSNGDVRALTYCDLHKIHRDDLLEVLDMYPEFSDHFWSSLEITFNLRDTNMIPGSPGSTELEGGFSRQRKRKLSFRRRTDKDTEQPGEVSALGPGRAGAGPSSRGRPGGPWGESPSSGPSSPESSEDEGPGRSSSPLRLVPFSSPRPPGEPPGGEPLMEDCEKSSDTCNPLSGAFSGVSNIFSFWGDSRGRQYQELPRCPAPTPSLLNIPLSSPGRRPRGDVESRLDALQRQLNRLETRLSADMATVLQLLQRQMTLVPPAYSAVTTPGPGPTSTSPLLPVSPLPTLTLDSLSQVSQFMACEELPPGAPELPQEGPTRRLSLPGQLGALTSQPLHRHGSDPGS

[5] = Selectivity ratio of IC50 for JAK2 dependent EPO-induced STAT5A phosphorylation in human TF1 cells to IC50 for JAK1/JAK3 dependent IL2-induced STAT3 phosphorylation in human PBMC derived T-cells
[6] = biological target: T1, Tyrosine-protein kinase JAK3 (Homo sapiens, UniProt P52333); experiment: Inhibition of JAK3 (unknown origin) using CSKtide as substrate after 30 mins in presence of [gamma33P]ATP by liquid scintillation counting method
T1 sequence (P52333 whole entry): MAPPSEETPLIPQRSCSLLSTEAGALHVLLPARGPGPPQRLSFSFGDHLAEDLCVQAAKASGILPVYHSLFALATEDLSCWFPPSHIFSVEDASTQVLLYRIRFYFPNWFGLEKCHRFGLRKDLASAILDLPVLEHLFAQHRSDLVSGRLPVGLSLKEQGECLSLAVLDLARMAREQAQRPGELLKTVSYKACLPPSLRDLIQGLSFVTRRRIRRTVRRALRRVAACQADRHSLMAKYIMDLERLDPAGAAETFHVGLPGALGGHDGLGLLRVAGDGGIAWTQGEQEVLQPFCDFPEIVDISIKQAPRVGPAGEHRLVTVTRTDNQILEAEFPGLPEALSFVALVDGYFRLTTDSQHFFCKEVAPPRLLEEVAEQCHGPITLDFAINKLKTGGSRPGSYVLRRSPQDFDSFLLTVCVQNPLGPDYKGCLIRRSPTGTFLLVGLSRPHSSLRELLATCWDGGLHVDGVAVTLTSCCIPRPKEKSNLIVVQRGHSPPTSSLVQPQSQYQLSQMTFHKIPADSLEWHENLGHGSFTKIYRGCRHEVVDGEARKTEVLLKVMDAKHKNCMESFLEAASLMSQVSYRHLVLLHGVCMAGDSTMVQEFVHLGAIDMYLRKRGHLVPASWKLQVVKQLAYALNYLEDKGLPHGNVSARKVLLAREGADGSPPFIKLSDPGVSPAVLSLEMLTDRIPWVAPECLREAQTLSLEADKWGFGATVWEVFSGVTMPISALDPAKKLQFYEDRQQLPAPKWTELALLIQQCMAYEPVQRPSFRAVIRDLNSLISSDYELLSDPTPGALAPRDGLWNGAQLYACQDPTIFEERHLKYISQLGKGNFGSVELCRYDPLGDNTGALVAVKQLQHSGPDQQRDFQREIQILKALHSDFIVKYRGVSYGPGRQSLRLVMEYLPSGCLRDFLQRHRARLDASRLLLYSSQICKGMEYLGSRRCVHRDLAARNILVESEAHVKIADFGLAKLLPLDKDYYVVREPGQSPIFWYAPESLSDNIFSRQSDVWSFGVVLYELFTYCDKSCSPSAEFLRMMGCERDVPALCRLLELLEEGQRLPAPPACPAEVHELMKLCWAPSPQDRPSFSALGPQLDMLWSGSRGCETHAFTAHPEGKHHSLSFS

[7] = Metabolic stability in mouse liver microsomes assessed as compound remaining after 10 mins; format: ADME, microsome; conditions: read-out: Stability
[8] = Permeability from apical side to basolateral side in human Caco2 cells; format: ADME, cell-based; conditions: Caco-2, read-out: permeability
[9] = biological target: Tyrosine-protein kinase JAK2 (Homo sapiens, UniProt O60674); experiment: Inhibition of GST-tagged JAK2 (unknown origin) after 3 hrs by Caliper assay
Chain of Tyrosine-protein kinase JAK2 (O60674 whole entry): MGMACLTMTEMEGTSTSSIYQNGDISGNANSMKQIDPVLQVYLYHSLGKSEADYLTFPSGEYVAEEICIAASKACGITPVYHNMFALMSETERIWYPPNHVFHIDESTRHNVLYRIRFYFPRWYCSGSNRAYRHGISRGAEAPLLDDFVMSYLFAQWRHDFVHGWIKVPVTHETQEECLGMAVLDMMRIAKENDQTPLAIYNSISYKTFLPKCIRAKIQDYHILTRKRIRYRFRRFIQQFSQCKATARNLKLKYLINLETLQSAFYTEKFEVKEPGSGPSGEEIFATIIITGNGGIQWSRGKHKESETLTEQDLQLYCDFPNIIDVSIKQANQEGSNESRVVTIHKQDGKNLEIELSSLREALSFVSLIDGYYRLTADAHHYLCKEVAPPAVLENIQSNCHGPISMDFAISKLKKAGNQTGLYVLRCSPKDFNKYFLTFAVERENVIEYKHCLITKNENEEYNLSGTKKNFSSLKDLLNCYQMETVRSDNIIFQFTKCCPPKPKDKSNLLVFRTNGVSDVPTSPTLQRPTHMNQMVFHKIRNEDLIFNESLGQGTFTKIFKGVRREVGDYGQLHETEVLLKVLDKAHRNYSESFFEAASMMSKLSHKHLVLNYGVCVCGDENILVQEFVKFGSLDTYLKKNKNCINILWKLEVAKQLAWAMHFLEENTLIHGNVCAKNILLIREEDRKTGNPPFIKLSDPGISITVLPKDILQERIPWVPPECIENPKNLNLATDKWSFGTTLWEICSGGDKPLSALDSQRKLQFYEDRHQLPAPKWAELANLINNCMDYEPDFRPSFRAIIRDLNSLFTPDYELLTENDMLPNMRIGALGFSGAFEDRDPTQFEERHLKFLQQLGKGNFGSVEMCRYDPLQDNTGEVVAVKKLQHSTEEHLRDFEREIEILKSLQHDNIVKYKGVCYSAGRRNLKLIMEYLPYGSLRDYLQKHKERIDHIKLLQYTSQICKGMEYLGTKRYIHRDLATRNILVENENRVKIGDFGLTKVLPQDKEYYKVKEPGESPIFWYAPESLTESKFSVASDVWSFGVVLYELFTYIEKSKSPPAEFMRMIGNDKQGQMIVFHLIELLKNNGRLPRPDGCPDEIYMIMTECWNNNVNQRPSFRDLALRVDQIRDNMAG

[10] = biological target: Non-receptor tyrosine-protein kinase TYK2 (Homo sapiens, UniProt P29597); experiment: Inhibition of His-tagged TYK2 (unknown origin) after 3 hrs by Caliper assay
Chain of Non-receptor tyrosine-protein kinase TYK2 (P29597 whole entry): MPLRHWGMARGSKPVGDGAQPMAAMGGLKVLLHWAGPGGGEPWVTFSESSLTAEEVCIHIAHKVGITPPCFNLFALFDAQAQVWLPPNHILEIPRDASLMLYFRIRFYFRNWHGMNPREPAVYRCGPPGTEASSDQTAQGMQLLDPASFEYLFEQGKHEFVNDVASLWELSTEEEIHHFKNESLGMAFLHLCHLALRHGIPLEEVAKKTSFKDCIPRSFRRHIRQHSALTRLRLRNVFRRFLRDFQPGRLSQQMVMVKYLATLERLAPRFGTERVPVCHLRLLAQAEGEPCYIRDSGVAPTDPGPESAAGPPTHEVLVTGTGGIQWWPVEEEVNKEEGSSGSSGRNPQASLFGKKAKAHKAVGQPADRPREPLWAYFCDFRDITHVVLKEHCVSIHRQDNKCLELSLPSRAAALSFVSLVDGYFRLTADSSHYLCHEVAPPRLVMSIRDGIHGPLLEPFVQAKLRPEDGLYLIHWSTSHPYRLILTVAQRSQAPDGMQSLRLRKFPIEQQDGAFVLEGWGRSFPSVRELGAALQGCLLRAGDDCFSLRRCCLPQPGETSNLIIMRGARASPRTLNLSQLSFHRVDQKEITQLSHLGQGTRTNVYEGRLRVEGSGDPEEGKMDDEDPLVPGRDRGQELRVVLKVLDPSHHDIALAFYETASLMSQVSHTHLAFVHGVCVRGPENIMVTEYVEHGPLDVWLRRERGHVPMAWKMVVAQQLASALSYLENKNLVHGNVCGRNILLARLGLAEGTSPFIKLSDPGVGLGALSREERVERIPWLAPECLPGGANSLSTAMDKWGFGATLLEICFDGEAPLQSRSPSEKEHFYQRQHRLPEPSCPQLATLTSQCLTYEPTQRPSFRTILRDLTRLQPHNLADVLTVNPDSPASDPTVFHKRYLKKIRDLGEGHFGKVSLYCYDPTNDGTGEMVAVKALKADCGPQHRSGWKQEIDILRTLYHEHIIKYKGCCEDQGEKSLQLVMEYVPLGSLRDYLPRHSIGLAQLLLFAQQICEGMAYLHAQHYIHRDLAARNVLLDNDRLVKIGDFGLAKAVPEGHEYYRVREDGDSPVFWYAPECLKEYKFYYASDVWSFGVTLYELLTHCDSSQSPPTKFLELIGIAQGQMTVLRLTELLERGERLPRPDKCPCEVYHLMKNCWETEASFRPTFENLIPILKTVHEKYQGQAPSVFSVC

JAK3/JAK1 = JAK3/JAK1 (Homo sapiens, UniProt P23458+P52333); experiment: Inhibition of JAK1/JAK3 in human whole blood assessed as reduction in IL-2 induced IFN-gamma production after 18 hrs by ELISA; format: protein-complex assay
Chain of JAK3/JAK1 (P23458 whole entry, one chain of several): as the sequence (P23458 whole entry) above

[11] = Oral bioavailability in rat; format: ADME, organism-based; conditions: in vivo
Serum = experiment: Protein binding in human serum; format: ADME, cell-free
[12] = Clearance of compound in rat; format: ADME; conditions: in vivo
Rattus norvegicus = species: Rattus norvegicus; experiment: Clearance of compound in rat relative to hepatic blood flow; format: ADME; conditions: in vivo
[13] = Cmax in mouse at 10 mg/kg, po after 8 hrs; format: ADME, organism-based; set-up: dose 10 mg/kg, route oral; conditions: in vivo
[14] = Cmin in mouse at 10 mg/kg, po after 8 hrs; format: ADME, organism-based; conditions: in vivo, read-out: Cmin
Mus musculus [15] = experiment: Antiarthritic activity in collagen-induced mouse model assessed as […] at 20 mg/kg bid up to 41 days; format: functional, organism-based
Mus musculus [16] = experiment: Antiarthritic activity in collagen-induced arthritis mouse model assessed as reduction in inflammation at 20 mg/kg bid measure up to 41 days; format: functional, organism-based

Structure (SMILES)	fraction unbound [1]	Cmax [2] [nM]	IC50 [3] [nM]	IC50 [4] [nM]	Ratio IC50 [5]	IC50 [6] [nM]	remaining at 10 min [7] [%]	Papp A→B [8] [×10⁻⁶ cm/s]	IC50 [9] [nM]	IC50 [10] [nM]	IC50 (JAK3/JAK1) [nM]	bioavailability [11] [%]	PB (Serum) [%]	clearance [12] [mL/min/kg]	CL (Rattus norvegicus) [%]	Cmax [13] [nM]	concentration at 8 h [14] [nM]	Activity (Mus musculus [15])	Activity (Mus musculus [16])
CC1(C)[C@H](Nc2c(C(N)=O)cnn3cc(-c4ccncc4F)cc23)CC[C@]1(C)N	0.22	< 250	3.6	> 80000	150	4.6	68	2.3	70	46	120	–	–	–	–	–	–	–	–
CC1(C)[C@H](Nc2c(C(N)=O)cnn3cccc23)CC[C@]1(C)N	–	–	–	–	–	–	–	–	–	–	–	24	97	145	> 100	–	–	–	–
CC1(C)[C@H](Nc2c(C(N)=O)cnn3cc(-c4ccc(F)nc4)cc23)CC[C@]1(C)N	–	–	2.2	35000	13	0.4	88	< 1.5	19	27	100	–	–	–	–	300	100	–	–
C[C@@H]1CCN(C(=O)CC#N)C[C@@H]1N(C)c1ncnc2[nH]ccc12	–	–	–	–	–	–	–	–	–	–	–	–	–	–	–	–	–	Active	Active
